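All cell lines were grown in 96-well plates and treated with compound for 48 hours. At the TGI there is no net growth.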
Assays:
Assay in all cases: DTP human tumour cell line panel, 48 h
[1] = test system: A549 NSCLC
[2] = test system: DU-145 prostate
[3] = test system: MDA-N
[4] = test system: CCRF-CEM leukemia
[5] = test system: SR leukemia
[6] = test system: SF-295 CNS
[7] = test system: ACHN renal
[8] = test system: HCT-15 colon
[9] = test system: HCC-2998 colon
[10] = test system: HOP-92 NSCLC
[11] = test system: UACC-257 melanoma
[12] = test system: HT29 colon
[13] = test system: SNB-75 CNS
[14] = test system: SW-620 colon
[15] = test system: RXF 393 renal
[16] = test system: OVCAR-8 ovarian
[17] = test system: HL-60(TB) leukemia
[18] = test system: SK-MEL-2 melanoma
[19] = test system: UO-31 renal
[20] = test system: MDA-MB-435
[21] = test system: SK-MEL-28 melanoma
[22] = test system: MCF7 breast
[23] = test system: NCI-H23 lung
[24] = test system: M14 melanoma
[25] = test system: OVCAR-5 ovarian
[26] = test system: CAKI-1 renal
[27] = test system: PC-3 prostate
[28] = test system: MDA-MB-231 breast
[29] = test system: SF-268 CNS
[30] = test system: K-562 leukemia
[31] = test system: MALME-3M melanoma
[32] = test system: KM12 colon
[33] = test system: TK-10 renal
[34] = test system: A498 renal
[35] = test system: UACC-62 melanoma
[36] = test system: NCI/ADR-RES ovarian
[37] = test system: IGROV1 ovarian
[38] = test system: NCI-H460 lung
[39] = test system: T-47D breast
[40] = test system: SN12C renal
[41] = test system: 786-0 renal
[42] = test system: HS 578T breast
[43] = test system: OVCAR-4 ovarian
[44] = test system: COLO 205 colon
[45] = test system: HOP-62 NSCLC
[46] = test system: SK-MEL-5 melanoma
[47] = test system: SK-OV-3 ovarian
[48] = test system: MOLT-4 leukemia
[49] = test system: RPMI-8226 leukemia
[50] = test system: NCI-H522 lung
[51] = test system: NCI-H226 lung
[52] = test system: SF-539 CNS
[53] = test system: SNB-19 CNS
[54] = test system: OVCAR-3 ovarian
[55] = test system: EKVX NSCLC
[56] = test system: BT-549 breast
[57] = test system: HCT-116 colon
[58] = test system: U251 CNS

In the case of `COC1Cc2c(C)c(OC(C)=O)c3cccnc3c2O1` (stereo not drawn), the TGI [1] is reported as 34 µM, the TGI [2] is reported as 31 µM and the TGI [3] is reported as 46.3 µM. For the same molecule, the TGI [4] was 34.1 µM, the TGI [5] was 61.2 µM and the TGI [6] was 93.3 µM. For the same molecule, the TGI [7] was 22.8 µM, the TGI [8] was 22.1 µM and the TGI [9] was > 100 µM. The TGI [10] was 33.8 µM, the TGI [11] was 29.8 µM and the TGI [12] was > 100 µM. It also gave a TGI [13] of 31.7 µM, a TGI [14] of 27.9 µM and a TGI [15] of 31.7 µM. For the same molecule, the TGI [16] was 44.7 µM, the TGI [17] was 25.3 µM and the TGI [18] was 31.2 µM. It also gave a TGI [19] of 27.3 µM, a TGI [20] of 32.6 µM and a TGI [21] of 53 µM. It also gave a TGI [22] of 39.7 µM, a TGI [23] of 36.3 µM and a TGI [24] of 27.7 µM. The TGI [25] was 32.7 µM, the TGI [26] was > 100 µM and the TGI [27] was > 100 µM. The TGI [28] was > 100 µM, the TGI [29] was 34 µM and the TGI [30] was 86 µM. The TGI [31] was 31.9 µM, the TGI [32] was > 100 µM and the TGI [33] was > 100 µM. The TGI [34] was > 100 µM, the TGI [35] was 29 µM and the TGI [36] was 67.4 µM. The TGI [37] was 37.3 µM, the TGI [38] was 61.5 µM and the TGI [39] was 62.3 µM. For the same molecule, the TGI [40] was 37.8 µM, the TGI [41] was 34.3 µM and the TGI [42] was > 100 µM. For the same molecule, the TGI [43] was 30.1 µM, the TGI [44] was > 100 µM and the TGI [45] was 90.9 µM. The TGI [46] was 29.2 µM, the TGI [47] was > 100 µM and the TGI [48] was 43.1 µM. The TGI [49] was > 100 µM, the TGI [50] was 13.6 µM and the TGI [51] was > 100 µM. The TGI [52] was > 100 µM, the TGI [53] was > 100 µM and the TGI [54] was 70.5 µM. For the same molecule, the TGI [55] was 30.6 µM, the TGI [56] was 41.5 µM and the TGI [57] was > 100 µM. For the same molecule, the TGI [58] was > 100 µM.
